Measured values taken from ChEMBL document CHEMBL3507680, “University of Dundee, Gates Library screen for HepG2 cell viability”.

Experiment: Human HepG2 cell viability assay in 384 well format
Format: toxicity, cell-based
Parameters: dose 125 nL, time 70.5 hour; concentration not given beside the values
Conditions: HepG2 cells, read-out: Inhibition

| SMILES | cytotoxicity at 70.5 h |
| --- | --- |
| O=C(Cc1csc(-c2ccccc2F)n1)NCc1ccc(C(=O)O)cc1 | -10.6% |
| CC(C)CC(NC(=O)c1ccco1)c1nnc2ccccn12 (stereo unspecified) | -24.3% |
| O=C(NCCN1CCOCC1)c1nc2ccccc2c(=O)[nH]1 | -23.1% |
| CNC(=O)c1nc(COc2ccc3c(c2)OCO3)no1 | -9.82% |
| CCC(C)[C@H](NC(=O)c1ccc(F)cc1-n1cnnn1)C(=O)OC (stereo partly specified) | -10.7% |
| CC(=O)Nc1ccc(OCc2noc(C(=O)N3CCCCC3)n2)cc1 | -18.1% |
| CC(C)NC(=O)Cc1cnc(-n2cccc2)s1 | -24.2% |
| Cn1nnnc1SC1CCc2ccccc2NC1=O (stereo unspecified) | -24.7% |
| O=C(NC1CC1)c1nc(COc2ccc3c(c2)OCO3)no1 | -9.12% |
| COCCNC(=O)c1cc(-n2cccc2)ccc1Cl | -23.7% |
| CN1C(=O)C2(CC(=O)Nc3[nH]ncc32)c2cc(F)ccc21 (stereo unspecified) | -19.4% |
| COc1ccc(N2Cc3nc(=O)n(Cc4cccc(F)c4)n3C2=O)cc1 | -13% |
| O=S1(=O)CCC(S(=O)(=O)c2cccc(S(=O)(=O)N3CCCCCC3)c2)C1 (stereo unspecified) | -10.9% |
| CN1C(=O)C2(CC(=O)Nc3c2cnn3C(C)(C)C)c2c(Cl)cccc21 (stereo unspecified) | -19.1% |
| O=C(NCCc1c[nH]cn1)c1ccc2c(c1)C(=O)N(C1CCCC1)C2=O | -1.68% |
| N#Cc1nc(COc2ccc3c(c2)OCO3)oc1NC1CCCCC1 | -28.5% |
| CC(C)CCN1C(=O)c2ccc(C(=O)NCCc3c[nH]cn3)cc2C1=O | -4.63% |
| Cc1cccc2c1N(C)C(=O)C21CC(=O)Nc2c1cnn2C(C)(C)C (stereo unspecified) | -18.4% |
| CC(C)[C@H](NC(=O)NC1CCS(=O)(=O)C1)C(=O)NCc1ccc(Cl)cc1 (stereo partly specified) | -18.2% |
| COCCNc1nc(N2CCCC2)nc2nccnc12 | 26.5% |
| Cc1cc(C)n(Cc2ccc(-c3noc(C(=O)NCCO)n3)cc2)n1 | -18.6% |
| Cc1occc(=O)c1OCc1noc(C(=O)NC2CCCC2)n1 | -16.2% |
| Cn1cnnc1SC1CCc2ccccc2NC1=O (stereo unspecified) | -20.5% |

| SMILES | cytotoxicity at 70.5 h |
| --- | --- |
| COCCCN1C(=O)c2ccc(C(=O)NCCc3c[nH]cn3)cc2C1=O | 1.41% |
| COc1cc2c(cc1OC)C(=O)C(Sc1nncn1C)C2 (stereo unspecified) | -4.34% |
| CNC(=O)c1nc(CC(=O)Nc2cccc(C(F)(F)F)c2)no1 | 22.3% |
| CC[C@@H](C)[C@H](NC(=O)NC1CCS(=O)(=O)C1)C(=O)NCc1ccncc1 (stereo partly specified) | 10.2% |
| CC(C)[C@H](NC(=O)NC1CCS(=O)(=O)C1)C(=O)NCc1ccccc1 (stereo partly specified) | -19% |
| COC(=O)[C@@H](NC(=O)c1snnc1-c1ccc(OC)cc1)C(C)C | 11.1% |
| CCc1c(C)sc2nc3n(CCN(C)C)nc(SC)n3c(=O)c12 | 20.8% |
| CCN(CC)C(=O)CSc1sc2c(O)cc(=O)[nH]c2c1C(N)=O | -14.3% |
| CCOC(=O)c1nc(CC(=O)Nc2ccc3cc[nH]c3c2)no1 | -9.72% |
| Cc1nc(NC(=O)c2c(-n3cnnn3)sc3c2CCCC3)sc1C | -10.4% |
| CNC(=O)c1nc(CC(=O)Nc2ccc3cc[nH]c3c2)no1 | -13.1% |
| O=C(NCCc1c[nH]c2ccccc12)C1(n2cnnn2)CCCCC1 | -28.6% |
| COc1cccc(NC(=O)Cn2c(=O)nc(N)c3cc(C)sc32)c1 | -17.3% |
| CCc1c(C)sc2nc3n(CC(N)=O)nc(SC)n3c(=O)c12 | 5.38% |
| Cc1csc(NC(=O)c2ccc(NC(=O)N3CCOCC3)cc2)n1 | 3.47% |
| CCc1c(C)sc2c1c(N)nc(=O)n2CCN1CCCCC1 | 5.23% |
| C=C(C)Cn1c(=O)nc(N)c2c(-c3ccc(OC)cc3)csc21 | -9.64% |
| CCc1c(C)sc2nc3n(CCN4CCOCC4)nc(SC)n3c(=O)c12 | 5.28% |
| Cc1cc2c(N)nc(=O)n(CC(=O)Nc3cccc(Cl)c3)c2s1 | -13.3% |
| Cc1cc2c(N)nc(=O)n(CC(=O)Nc3ccccc3)c2s1 | 8.01% |
| Cc1occc(=O)c1OCC(=O)N1CCN(c2cccc(Cl)c2)CC1 | 2.39% |
| CC(C)c1ccc(C2CC(=O)Nc3c2cnn3C)cc1 (stereo unspecified) | -15.6% |
| Cn1ncc2c1NC(=O)CC2c1cccs1 (stereo unspecified) | -4.29% |

| SMILES | cytotoxicity at 70.5 h |
| --- | --- |
| COCCNC(=O)CNC(=O)c1nc(Cc2c(Cl)cccc2Cl)no1 | -8.7% |
| Cc1cnc(NC(=O)c2csc(NC3CCCC3)n2)s1 | 43.8% |
| COc1cc(C2CC(=O)Nc3c2cnn3C)ccc1O (stereo unspecified) | 46.1% |
| COCc1nnn2c1CN(C(=O)c1ccnnc1)CCC2 | 8.76% |
| O=C1[C@@H]2CCN(Cc3ccc(F)cc3)C[C@@H]2OCCN1c1cccnc1 | -3.72% |
| Cc1ccc(N2CCC3(CCN(C(=O)C4CCOC4)CC3)CC2)nn1 (stereo unspecified) | -3.84% |
| O=C(NC[C@H]1OC[C@@H]2CCN(c3ncccn3)C[C@@H]21)c1ccnnc1 | 1.23% |
| O=S(=O)(C1CC1)N1CCn2c(Cn3cncn3)cnc2C1 | 0.357% |
| Cn1nc(CNC(=O)CC#N)c2c1CN(C(N)=O)CC2 | 11.4% |
| Cc1cnc(N2CC(C(=O)N3CCOCC3)C3(CCOCC3)C2)nc1 (stereo unspecified) | -3.59% |
| CC(=O)Nc1ccc2c(c1)C1(CCOCC1)C(=O)N2c1ccsc1 | -9.04% |
| CC(C)Nc1ccc2c(c1)C1(CCOCC1)C(=O)N2c1ccsc1 | -7.35% |
| Cc1cnc(N2CCOC3(CCCN(c4ncccn4)C3)C2)nc1 (stereo unspecified) | -4.18% |
| CCOCC1CN(c2ncc(F)cn2)Cc2cn(CC)nc21 (stereo unspecified) | -11.1% |
| COCCN1C(=O)C2(CCC(C(=O)Nc3cccc(C)c3)CC2)N=C1C (stereo unspecified) | -9.96% |
| CC(C)NC(=O)N1CCOC2(CCCN(c3cccc(C#N)c3)C2)C1 (stereo unspecified) | -10.4% |
| CCn1cc2c(n1)C(COCC1CC1)CN(c1ccc(C)nn1)C2 (stereo unspecified) | -16.7% |
| O=C(C1CN(c2ncc(F)cn2)CC12CCOCC2)N1CCOCC1 (stereo unspecified) | -9.96% |
| COCCN1C(=O)C2(CCC(C(=O)Nc3ccc(F)cc3)CC2)N=C1C (stereo unspecified) | -7.58% |
| Cc1nnn2c1COC(CNCc1ccncc1)C2 (stereo unspecified) | -15.7% |
| O=C(NC1CCCC1)NC1CCc2[nH]c(=O)ccc2C1 (stereo unspecified) | -7.5% |
| O=C(c1nc2c(s1)CCCN2C(=O)C1CC1)N1CCCC1 | -3.91% |
| c1ccc(CNCC2Cn3nncc3CO2)nc1 (stereo unspecified) | -7.76% |

| SMILES | cytotoxicity at 70.5 h |
| --- | --- |
| O=C(NC1CCC1)[C@H]1C[C@@H]2CN(C(=O)Nc3ccc(F)cc3)C[C@H]1O2 | -5.31% |
| Cc1cccc(COC2COC3(CCN(Cc4ccoc4)CC3)C2)n1 (stereo unspecified) | -16.1% |
| c1cc(CN2CCO[C@@H]3CNC[C@@H]32)cs1 | -2.99% |
| CC(C)N(C)Cc1cncc2c1CCN(C(=O)c1ccc[nH]1)C2 | -1.2% |
| CC(C)N(C)Cc1cncc2c1CCN(C(=O)c1cccc(C#N)c1)C2 | -4.95% |
| CC(C)N(C)Cc1cncc2c1CCN(C(=O)c1ccccc1F)C2 | -1.95% |
| O=C(NC1CC1)[C@H]1CN(Cc2ccc3c(c2)OCO3)C[C@H]2OCC[C@@H]12 | -1.23% |
| O=C1COC2(CCN(Cc3ccoc3)CC2)CN1CCn1cccn1 | -2.81% |
| Fc1cnc(N2CCc3nnc(COc4ccccn4)n3CC2)nc1 | -3.38% |
| CC(C)c1nc(-c2cc(C(=O)NCCN(C)C)c3ccccn23)cs1 | -1.61% |
| CN(C)Cc1nnc2n1CCN(c1cnccn1)CC2 | 0.405% |
| Cc1ccc(N2CCC3(CCCN3Cc3ccn(C)n3)CC2)nn1 | -2.31% |
| OCCOCc1n[nH]c2c1CN(Cc1ccco1)C2 | 12.9% |
| CC(C)C(=O)N1CCCC2(CCCN2CC2CCCC2)C1 (stereo unspecified) | -2.41% |
| O=C(c1ccc2[nH]ccc2c1)N1Cc2nc(CN3CCCCC3)oc2C1 | -3.84% |
| COCC1CC2(CCN(C(N)=O)CC2)CN1Cc1csc(C)n1 (stereo unspecified) | -3.74% |
| Cc1nc(CN2C[C@@H]3CN(c4ncc(F)cn4)C[C@@H]3C2=O)cs1 | -10.5% |
| O=C(C1CN(c2ncc(F)cn2)CC12CCOCC2)N1CC=CC1 (stereo unspecified) | -5.64% |
| Cc1cccc(N2CC3(CCN(S(=O)(=O)C4CC4)C3)C2)n1 | -6.18% |
| CCN1C[C@H]2C3(CCN(S(=O)(=O)CC)CC3)CC[C@@]2(C(=O)N(C)C)C1 | -4.85% |
| Cc1cnc(N2C[C@H]3CN(Cc4csc(C)n4)C(=O)[C@H]3C2)nc1 | -9.66% |
| CC(C)c1cc(C(=O)N2CCOC3(CCNCC3)C2)no1 | -5.65% |
| CCS(=O)(=O)N1CCC2(CC1)CC[C@@]1(C(=O)N(C)C)CN(C)C[C@@H]21 | -15.2% |

| SMILES | cytotoxicity at 70.5 h |
| --- | --- |
| CC(=O)N1CCCC2(C1)CN(c1ncc(C)cn1)CCO2 (stereo unspecified) | -17.1% |
| Cc1cc(CNCC2Cn3nnc(C)c3CO2)oc1C (stereo unspecified) | -7.06% |
| Cc1ccc(CN2C[C@@H]3CN(c4ncccn4)C[C@@H]3C2)cc1 | -4.24% |
| N#Cc1cccc(C(=O)N2CCc3c(COCC4CC4)cncc3C2)c1 | -17.6% |
| Cc1cnc(N2CCC3(CC(=O)N(Cc4csc(C)n4)C3)C2)nc1 (stereo unspecified) | -11.1% |
| Cc1occc1C(=O)N1CCOCC2(CCN(C3CCOCC3)C2)C1 (stereo unspecified) | -19.7% |
| CCn1ncc2c1C(COCC1CC1)N(Cc1nccs1)CC2 (stereo unspecified) | -0.956% |
| c1cncc(COCc2n[nH]c3c2CN(Cc2ccco2)C3)c1 | -1.5% |
| COc1ccc(CN2CCc3c(CNC(=O)CC#N)nn(C)c3C2)cc1 | -1.4% |
| CN1CCCn2c(nc(CNC(=O)c3nccn3C)cc2=O)C1 | -1.89% |
| CCN1CCC2(CC1)CC(COC)N(Cc1csc(C)n1)C2 (stereo unspecified) | -5.79% |
| COCC1CC2(CCN(CC3CC3)CC2)CN1Cc1csc(C)n1 (stereo unspecified) | -5.11% |
| COCC1CC2(CCNCC2)CN1Cc1csc(C)n1 (stereo unspecified) | -8.39% |
| Cc1nc(Cn2c3c(ccc2=O)CCN(CC2CC2)CC3)cs1 | -2.72% |
| CN(C)[C@@H]1COC[C@@H]2CN(Cc3ccc4c(c3)OCO4)C[C@@H]21 | -3.34% |
| c1cncc(OCc2noc3c2CN(Cc2cccs2)CC3)c1 | -24.1% |
| CCn1ncc2c1C(COCC1CC1)N(Cc1cnn(C)c1)CC2 (stereo unspecified) | -3.67% |
| Cc1cnc2n1CCN(C)C21CCN(CC2CC2)CC1 | -0.923% |
| Cc1ccc(-c2cnc3n2CCN(C)C32CCN(CC3CC3)CC2)cc1 | -1.92% |
